Results published in patent US20050008640A1, “Method of treating transplant rejection” (priority 2003, published 2005).

What was measured:
C57BL/6 mice = test: Delayed type hypersensitivity (DTH), mBSA footpad challenge; format: in vivo
Description: A modification of a method described by Magram, J., Turek, C. W., Killeen, N; Immunity, 4: 471, 1996 and Magram, J., Sfarra, J., Connaughton, S., et al; Ann. NY Acad. Sci., 795: 60-70, 1996 was used. On day 0 C57BL/6 mice were immunized intradermal (i.d.) with 400 μg methylated bovine serum albumin (mBSA) (Sigma Chemical Co., St. Louis, Mo.) in a 1:1 emulsion with complete Freund's adjuvant (Difco Labs, Detroit, Mich.). […] On day 7 post immunization mice were challenged in one hind footpad with 100 μg of mBSA in 20 μl of PBS and in the opposite footpad with PBS alone. Footpad swelling was measured 24 hours after challenge using a vernier caliper.

[1] = system: BALB/c skin allograft in C57BL/6 recipient mice; test: Skin transplantation; format: in vivo, C57BL/6 mice; settings: q.d. day -1 to day 9
Source text: Skin transplantation was done using a modification of a previously described method Chang, A. E. & Sugarbaker, P. H; Transplantation, 29: 381, 1980 and Sugarbaker, P. H. & Chang, A; J. Immunol. Methods, 31: 167, 1979. Tail skin was collected from BALB/c donors, scraped free of fat and fascia and maintained in PBS on ice until transplanted. Partial thickness wounds were created on the backs of C57BL/6 recipient mice and the graft was cut to exactly fit the wound bed. Grafts were adhered to the wound bed with a small amount of wound glue (Henry Schein, Melville, N.Y.), covered with petroleum jelly embedded gauze (Sherwood Medical, St. Louis, Mo.) and bandaged for 5 days. On day 6, bandages were removed and grafts were scored visually for necrosis from day 6 to day 10.

[2] = system: BALB/c cardiac allograft in C57BL/6 recipients; test: Neonatal cardiac transplantation; format: in vivo, C57BL/6 mice; settings: for cardiac allograft survival on day 13 post transplantation: q.d. from day -1, visual observation and electrocardiogram
Source text: Neonatal cardiac transplantation was done using a modification of methods described by Judd, K. P. & Trentin, J. J; Transplantation, 11(3): 298-302, 1971 and Fey, T. A., Krause, R. A., Hsieh, G. C., et al; J. Pharmacol. Tox. Methods, 39: 9-17, 1998 which are incorporated herein in their entirety.
Hearts from one to two day old C57BL/6 (isograft) and BALB/c (allograft) pups were removed aseptically and stored in cold PBS until transplant. Adult C57BL/6 mice were used as transplant recipients. Each recipient mouse was transplanted with an isograft heart in the left ear and an allograft heart in the right ear. Mice were anesthetized with avertin (0.25 cc/mouse, i.p.) (2.0 G 2,2,2-Tribromoethanol) (Aldrich, Milwaukee, Wis.) plus 2.0 ml 2-methyl-2-butanol (tert-amyl alcohol) (Aldrich, Milwaukee, Wis.) and protective ointment was applied to eyes after anesthesia. An incision was made in each ear pinnae using a scalpel blade and straight fine forceps were used to create a subcutaneous pocket in the ear. The donor heart was placed into the pocket using a second pair of forceps. On days 5-16, mice were anesthetized with isofluorane (Henry Schein, Melville, N.Y.) /oxygen and the heartbeats were visually assessed using a dissecting microscope. On the final day electrical activity of the cardiac tissue was monitored by electrocardiogram. The ears were then removed and the transplanted tissue were evaluated histologically for evidence of inflammation and necrosis (rejection).

[3] = system: BALB/c islet grafts in diabetic C57BL/6 recipients; test: Islet transplantation; format: in vivo, C57BL/6 mice; settings: 12 mg/kg oral daily
Description: Chemical diabetes was induced in C57BL/6 mice using a single intraperitoneal dose of streptozocin (150 mg/kg) as previously described in Markees, T. G., Serreze, D. V., Phillips, N. E., et al; Diabetes, 48(5): 967-974, 1999. Mice with persistent hyperglycemia of >300 mg/dl were selected for experimentation as allograft recipients. Blood for plasma glucose was monitored thrice weekly (Glucose Analyzer2; Beckman Instruments, Fullerton, Calif.). Islets of Langerhans from BALB/c donors were isolated by collagenase digestion followed by density-gradient separation, as described previously Markees, T. G., Serreze, D. V., Phillips, N. E., et al; Diabetes, 48(5): 967-974, 1999. Approximately 20 islets/g body weight were transplanted into the renal subcapsular space C57BL/6 recipients. Oral treatments were provided daily beginning one day prior to islet transplant through day 28. Rejection was defined as the first of two consecutive days on which the plasma glucose was greater than or equal to 250 mg/dl. To verify the functionality of islet grafts, the graft bearing kidney was removed and placed in 10% formalin for histological analysis. Recurrence of hyperglycemia after graft removal was interpreted as evidence that the graft was the source of insulin in treated mice.

IgG1 alloantibody = test: Alloantibody measurement, IgG1; format: in vivo, C57BL/6 mice; settings: serum 21 days after cardiac allograft; dose not stated
Description: (§1) All sera were heat inactivated at 56° C. for 30 minutes and stored at −20° C. prior to analysis. BALB/c T cells were purified from spleen using MACS CD90 (Thy1.2) beads (Miltenyi Biotech, Auburn, Calif.). Briefly, 10^7 cells were resuspended in buffer containing 10 mg/ml of human IgG (Sigma, St. Louis, Mo.). […] The bead/cell mixture was then incubated for 15 minutes at 6-12° C., washed, and resuspended in 500 μl PharMingenStain Buffer (PharMingen , San Diego, Calif.) per 10^8 cells and run through an LS+ selection column. The isolated T cell suspension was adjusted to a concentration of 1×10^6 cells/ml. For flow cytometric analysis BALB/c T cells were incubated with recipient sera (1:50 for IgG2a analysis, 1:40 for IgG1 analysis). Following a 30 minute incubation at 4° C., the cells were washed and resuspended in either goat anti-mouse IgG1-phycoerythrin (PE) or anti-mouse IgG2a-PE antibody (Caltag, Burlingame, Calif.). Cells were analyzed using a Becton Dickinson FACScan (Mountain View, Calif.). Data are presented as mean and SEM of fluorescence intensity corrected for control (naive serum) fluorescence. Statistical analysis was performed using a two-tailed Student's t-test.

anti-CD3 induced IL-2 = test: Anti-CD3 induced IL-2 production; format: in vivo, BALB/c mice; settings: 12.5 mg/kg p.o.
Description: Six to 8 week old BALB/c mice were dosed p.o. with EXAMPLE 3 30 minutes prior to i.v. injection of 75 ng hamster anti-mouse CD3 antibody, 145-2C11 (PharMingen, San Diego, Calif.). Two hours after anti-CD3 injection mice were bled via cardiac puncture, serum was collected and assayed for IL-2 by ELISA (Endogen, Woburn, Mass.).

IgG2a alloantibody = test: Alloantibody measurement, IgG2a; format: in vivo, C57BL/6 mice; settings: serum 21 days after cardiac allograft; dose not stated
Description: as §1

Question: Which “inhibition of DTH” value (C57BL/6 mice; treatment given only on days 7 and 8 (around the antigen challenge)) does the source give for `COc1cc(-c2nn(C3CCC(N4CCN(C)CC4)CC3)c3ncnc(N)c23)ccc1NC(=O)c1cc2ccccc2n1C` (centres unmarked) [Example 3] here?
Answer: Its value is 65%.

Question: What about the “inhibition of footpad swelling 24 hours post challenge” value (C57BL/6 mice; treatment p.o., q.d. from day -1 to day 8) of the same compound?
Answer: The value was 77%.

Question: And the “survival of skin allografts” value ([1]; 6 mg/kg p.o.)?
Answer: The value was 42%.

Question: What about the “survival of skin allografts” value ([1]; 12 mg/kg p.o.) of the same compound?
Answer: Its value is 90%.

Question: What about the “cardiac allograft survival on day 13 post transplantation” value ([2]; 6 mg/kg p.o.) of the same compound?
Answer: The value was 60%.

Question: And the “cardiac allograft survival on day 13 post transplantation” value ([2]; 12 mg/kg p.o.)?
Answer: Its value is 100%.

Question: What about the “Percent Survival Day 16 Post Transplant (cardiac allograft, electrocardiogram)” value ([2]; Example 3 3 mg/kg p.o., q.d.) of the same compound?
Answer: The value was 10%.

Question: What about the “histological evaluation of transplanted allograft hearts” value ([2]; compared to vehicle treated hearts) of the same compound?
Answer: The value was “decrease in peri- and intra-graft inflammation and necrosis”.

Question: What about the “histological evaluation of islet grafts” value [3] of the same compound?
Answer: Its value is “minimal intra-graft inflammation”.

Question: What about the “glycemic state of islet graft recipients” value ([3]; day -1 through day 28) of the same compound?
Answer: The value was “normoglycemic”.

Question: What about the “maintenance of BALB/c islet cell grafts” value ([3]; day -1 through day 28) of the same compound?
Answer: The value was 28 days.

Question: What about the “IgG1 alloantibody isotype production” value (IgG1 alloantibody) of the same compound?
Answer: The value was “completely inhibited”.

Question: What about the “inhibition of anti-CD3 induced IL-2” value (anti-CD3 induced IL-2) of the same compound?
Answer: The value was “complete inhibition”.

Question: What about the “IgG2a alloantibody isotype production” value (IgG2a alloantibody) of the same compound?
Answer: The value was “completely inhibited”.
